Assay results published in EP0315782A2, “Method for the production of proteins” (priority 1987, dated 1989).

Columns and labels:
Format in all cases: cell-based, chinesische Hamster
[1] = system: CHO-Zellen; test: t-PA production in transformed CHO cells, medium with 7.5% FKS, supernatant, direct chromogenic assay (DCA); conditions: for activation at 1 µM / activation at 1000 µM: CHO; for activation at 1 µM: read-out: % Steigerung der t-PA-Synthese; for activation at 1000 µM: read-out: Steigerung der t-PA-Produktion
From the text: (§1) Der Vektor für die t-PA-Produktion wurde in einem Subklon, CHO-K1-DUX B11, integriert (Urlaub et al., Proceedings of the National Academy of Science, USA, 77: 4216-4220, 1980). Diese Zell-Linie, eine Dihydrofolat Reduktase negative Mutante (DHFR-), ist für eine DHFR-abhängige Selektion der transfizierten Zellklone geeignet. Der Vektor für die humane c-DNA kann ein bekannter Plasmid-Vektor pBR-322 oder deren Abkömmling von Escherichia coli sein. Die Promotorregion für das in Frage kommende Gen und für das DHFR-Gen stammt aus SV 40 und die Terminationsregion für beide Gene von einem Hepatitis B-Oberflächenantigen. In den Beispielen wurden CHO-K1-DUX B11-Zellen, die durch die Plasmide pETPER oder pEPEFR transformiert sind, verwendet (siehe EP-A 0117059).
(§2) Die Zellkulturen werden bei 37°C in einem Hereaus-Brutschrank inkubiert und mit einem Kohlendioxid-Luftgemisch von 7,5% CO₂ in einer relativen Luftfeuchtigkeit von 100% belüftet. Je nach Verfahrensansatz werden unterschiedliche Kulturgefäße benutzt: Spinnergefäße für 100-1000 ml Medium, Roux-Schalen (Nunc) 175 cm² (70-100 ml Medium), 75 cm² (30-50 ml Medium), 25 cm² (7-10 ml Medium) und Mehrfachkulturschalen von Costar mit 2 cm² für 1 ml Kulturen. Für die Stammhaltung werden die Zellen in einer Dichte von 0,2-0,3 x 10⁶ Zellen/ml eingesetzt und alle 2-3 Tage subkloniert.
(§3) Die Protein-Produktion stimulierenden Substanzen können zu den verschiedenen Zeitpunkten jeweils in einer 1:100 Verdünnung zugegeben werden, d.h. sie wurden zuerst in Medium gelöst oder, wenn sie schwerlöslich sind, erst in Äthylalkohol gelöst und danach in Medium zugesetzt und dann das diese Substanz enthaltende Medium dem zellenthaltenden Medium im Verhältnis 1:100 v/v zugegeben.
(§4) In den folgenden Beispielen wurden, um die Stimulierung der t-PA-Synthese hervorzurufen, Zellen einer exponentiell wachsenden Kultur entnommen und in Plastikröhrchen (Falcon) 10 Min. bei 1000 x g in einer Beckmann T 3-6 Zentrifuge abzentrifugiert. Nach Dekantieren des Überstandes wurde das Zellpellet mit frischem Medium resuspendiert.
(§5) Für die Produktion von t-PA in serumhaltigem Medium wurde als frisches Medium F12/DMEM + 7,5% FKS + Gentamycin verwendet. Die resultierende Suspension kann in 2 cm² 24 Wells-Platten bei einer Zelldichte von 0,2-0,3 x 10⁶ Zellen/ml angesetzt werden.
(§6) Aliquots von Zellüberständen und Zellextrakten wurden zu verschiedenen Zeitpunkten abgenommen bzw. hergestellt. Die Messung der Proben erfolgte entweder sofort oder nach Aufbewahrung bei -20°C mit folgenden Methoden:
Von dem synthetischen Peptidsubstrat S-2288 (D-H-Ile-Pro-Arg-p-Nitroanilin) der Firma Kabi Diagnostica wird durch das t-PA p-Nitroanilin als Reaktionsprodukt gebildet. Die Aktivität von t-PA ist zur Bildung von p-Nitroanilin proportional, die bei […], 37°C, gemessen wird.
Die spektrophotometrische Bestimmung der Enzymkinetik wurde mit einem ACP-5010-Analysengerät der Firma Eppendorf automatisch durchgeführt.
Die Aktivität des Enzyms wurde anhand dieses vorgegebenen Standards berechnet. Eine t-PA-Standardreihe von 1-15 µg/ml wurde mit einem Laborstandard hergestellt, der zu 72% aus 1-kettigem Material besteht.
Die Substratlösung (100 mM Tris/106 mM NaCl) wurde in einer Konzentration von 50 mM eingesetzt.

[2] = system: CHO-Zellen; test: t-PA production in transformed CHO cells, serum-free medium, ELISA; conditions: for activation at 1 µM: CHO, Elisa, 1 ml supernatant vs control (0%), read-out: % Steigerung der t-PA-Synthese
From the text: as §1
Als serumfreies Medium stehen verschiedene bekannte Produkte zur Verfügung (siehe z.B. BMFT-Statusseminar 12, 13. November 1985, Bundesministerium für Forschung und Technologie, 5300 Bonn 2, Seite 111-120). Im folgenden Beispiel wird ein nachseziertes DMEM/Ham's F 12 Medium (1:1) (Gibco) als serumfreies Medium verwendet. Als Zusatz wird fötales Kälberserum (FKS) in einer Konzentration von 7,5% oder 1-2% verwendet.
as §2, §3
as §4, with “resuspendiert. […]” for “resuspendiert.”
Mit Hilfe eines ELISA (Enzyme-linked-immuno-sorbent-assay) wurden die t-PA-Proben des Überstandes und des Zellextraktes quantitativ bestimmt. […]

[3] = system: CHO-Zellen; test: t-PA production in transformed CHO cells, serum-free medium (DCA or determination method not given)
From the text: Diese Zell-Linie, eine Dihydrofolat Reduktase negative Mutante (DHFR-), ist für eine DHFR-abhängige Selektion der transfizierten Zellklone geeignet. […] Die Promotorregion für das in Frage kommende Gen und für das DHFR-Gen stammt aus SV 40 und die Terminationsregion für beide Gene von einem Hepatitis B-Oberflächenantigen.
Im folgenden Beispiel wird ein nachseziertes DMEM/Ham's F 12 Medium (1:1) (Gibco) als serumfreies Medium verwendet. Als Zusatz wird fötales Kälberserum (FKS) in einer Konzentration von 7,5% oder 1-2% verwendet.
as §2, §3, §4
(§7) Für die Produktion von t-PA in serumfreiem Medium wurden die Zellen zuvor 3-4 Tage in einem Medium von 1-2% FKS adaptiert, wieder abzentrifugiert und das Zellpellet in serumfreiem Medium resuspendiert und anschließend in 2 cm² 24 Wells-Platten in einer Zelldichte von 0,4-0,5 x 10⁶ Zellen/ml überführt.
as §6
Die Aktivität des Enzyms wurde anhand dieses vorgegebenen Standards berechnet.

[4] = system: CHO-Zellen; test: Cell growth / cell division of transformed CHO cells
Experimental: as §2, §5, §7

[5] = system: CHO-Zellen; test: t-PA production in transformed CHO cells, medium and determination method not stated
From the text: as §1, §2, §3, §4
Aliquots von Zellüberständen und Zellextrakten wurden zu verschiedenen Zeitpunkten abgenommen bzw. hergestellt. Die Messung der Proben erfolgte entweder sofort oder nach Aufbewahrung bei -20°C mit folgenden Methoden: […]

[6] = system: CHO-Zellen; test: t-PA production in transformed CHO cells, medium with 7.5% FKS, supernatant and cell extract, ELISA; conditions: for activation at 1000 µM: CHO
From the text: as §1, §2, §3, §4, §5, §6
Mit Hilfe eines ELISA (Enzyme-linked-immuno-sorbent-assay) wurden die t-PA-Proben des Überstandes und des Zellextraktes quantitativ bestimmt. Als Standard diente ein Laborstandard in einer Konzentrationsreihe von 0,038-5 µg/ml. Die Proben wurden 1:10 bis 1:1000 vorverdünnt.

C[C@@]1(CO)[C@H](O)CC[C@@]2(C)[C@H]1CC[C@H]1C[C@@H]3C[C@@]12CC[C@]3(O)CO [Aphidicolin]
activation at 1 µM ([1]; 24 h): 40.2%
activation at 1 µM ([1]; 48 h): 59.9%
activation at 1 µM ([1]; 72 h): 32.8%
activation at 1 µM ([1]; 96 h): 14.7%
activation at 1 µM ([2]; Table 13, 1 µM, 144 h after medium change): 51.3%
activation at 1 µM ([2]; Tables 13/14, 1 µM, 96 h after medium change): 36.7%
activation at 1 µM ([2]; Tables 13/14, 1 µM, 120 h after medium change): 42%
Maximum des Effekts nach Mediumwechsel ([3]; serum-free medium (Abb. 18)): 48 h
inhibition at 1 µM ([4]; CHO, 1 µM, after 24 h treatment, read-out: Hemmung des Zellwachstums): 5 to 10%
t-PA-Ausbeute gesteigert ([5]; after 24 h, continued incubation with the substance): 44,9 ± 13,9%
intrazelluläre t-PA-Konzentration erhöht ([5]; during the 24 h incubation with the substance): ca. 30%

CCCC(=O)O [Na-Butyrat]
activation at 1000 µM ([1]; 48 h, Table 6, 1 mM at each medium change (Applikation Tag 0, 2, 4, 7), Mediumwechsel Tag 2, 1 ml supernatant vs control (0%)): 33%
activation at 1000 µM ([1]; 96 h, Table 6, 1 mM at each medium change (Applikation Tag 0, 2, 4, 7), Mediumwechsel Tag 4, 1 ml supernatant vs control (0%)): 107%
activation at 1000 µM ([1]; 168 h, Table 6, 1 mM at each medium change (Applikation Tag 0, 2, 4, 7), Mediumwechsel Tag 7, 1 ml supernatant vs control (0%)): 96.6%
activation at 1000 µM ([1]; 216 h, Table 6, 1 mM at each medium change (Applikation Tag 0, 2, 4, 7), Mediumwechsel Tag 9, 1 ml supernatant vs control (0%)): 62%
maximaler t-PA-Gehalt ([1]; DCA, supernatant (Abb. 9B)): 47,4 ± 7,4 µg t-PA/1 x 10⁶ Zellen
prozentuale Steigerung im Überstand ([1]; after 24 h, average of DCA and Elisa, vs control): 19,2%
maximale Steigerung der t-PA-Produktion ([1]; day 3, medium with 7,5% FKS (Abb. 7)): 37,2 ± 5,1%
weitere Steigerung der t-PA-Synthese ([2]; in 1 µM Aphidicolin-treated cultures, after 96 h): 14%
Steigerung der t-PA-Synthese gegenüber der Kontrolle ([3]; serum-free medium, 1 day after application): 44,1 ± 7,1%
maximale Steigerung ([3]; serum-free medium, 3 days after application): 143,3 ± 12,8%
Steigerungseffekt ([3]; serum-free medium, 6 days after addition): 49,9 ± 7,0%
activation at 1000 µM ([6]; 24 h, read-out: Stimulierung der t-PA-Synthese extrazellulär): 68.5%
activation at 1000 µM ([6]; 24 h, read-out: Stimulierung der t-PA-Synthese intrazellulär): 90.9%
activation at 1000 µM ([6]; 48 h, read-out: Stimulierung der t-PA-Synthese extrazellulär): 119%
activation at 1000 µM ([6]; 48 h, read-out: Stimulierung der t-PA-Synthese intrazellulär): 99.7%
activation at 1000 µM ([6]; 72 h, read-out: Stimulierung der t-PA-Synthese extrazellulär): 223%
activation at 1000 µM ([6]; 72 h, read-out: Stimulierung der t-PA-Synthese intrazellulär): 93.9%
activation at 1000 µM ([6]; 96 h, read-out: Stimulierung der t-PA-Synthese extrazellulär): 281%
activation at 1000 µM ([6]; 96 h, read-out: Stimulierung der t-PA-Synthese intrazellulär): 210%
t-PA-Konzentration im Überstand ([6]; Elisa, starting value of the rise during the first 4 days): 7,5 ± 1,1 µg t-PA/ 1 x 10⁶ Zellen
t-PA-Konzentration im Überstand ([6]; Elisa, value reached in the rise during the first 4 days): 28,9 ± 5,3 µg t-PA/ 1 x 10⁶ Zellen
Zunahme des intrazellulären t-PA-Gehaltes ([6]; after 24 h incubation, vs control (Abb. 8)): 43,8 ± 9,8%
intrazelluläre t-PA-Gehalt ([6]; value from which the content falls (until day 5) (Abb. 9C)): 1,5 ± 0,2 µg t-PA/1 x 10⁶ Zellen

O=C(O)CS [Thioglykolsäure]
activation at 1000 µM ([1]; 24 h, Table 9, 1 mM, Zeit 24 h, Applikationstag 0, 7,5% FKS, 1 ml supernatant vs control (0%)): 27.6%
activation at 1000 µM ([1]; 24 h, Table 9, 1 mM, Zeit 24 h, Applikationstag 1, 7,5% FKS, 1 ml supernatant vs control (0%)): 34.7%
activation at 1000 µM ([1]; 24 h, Table 9, 1 mM, Zeit 24 h, Applikationstag 2, 7,5% FKS, 1 ml supernatant vs control (0%)): 34.5%
activation at 1000 µM ([1]; 48 h, Table 9, 1 mM, Zeit 48 h, Applikationstag 0, 7,5% FKS, 1 ml supernatant vs control (0%)): 16.9%
activation at 1000 µM ([1]; 48 h, Table 9, 1 mM, Zeit 48 h, Applikationstag 1, 7,5% FKS, 1 ml supernatant vs control (0%)): 17.1%
activation at 1000 µM ([1]; 48 h, Table 9, 1 mM, Zeit 48 h, Applikationstag 2, 7,5% FKS, 1 ml supernatant vs control (0%)): 16.3%
activation at 1000 µM ([1]; 72 h, Table 9, 1 mM, Zeit 72 h, Applikationstag 0, 7,5% FKS, 1 ml supernatant vs control (0%)): 14.7%
activation at 1000 µM ([1]; 72 h, Table 9, 1 mM, Zeit 72 h, Applikationstag 1, 7,5% FKS, 1 ml supernatant vs control (0%)): 10.2%
activation at 1000 µM ([1]; 72 h, Table 9, 1 mM, Zeit 72 h, Applikationstag 2, 7,5% FKS, 1 ml supernatant vs control (0%)): 9.4%
activation at 1000 µM ([1]; 96 h, Table 9, 1 mM, Zeit 96 h, Applikationstag 0, 7,5% FKS, 1 ml supernatant vs control (0%)): 3.4%
activation at 1000 µM ([1]; 96 h, Table 9, 1 mM, Zeit 96 h, Applikationstag 1, 7,5% FKS, 1 ml supernatant vs control (0%)): 2.7%
activation at 1000 µM ([1]; 96 h, Table 9, 1 mM, Zeit 96 h, Applikationstag 2, 7,5% FKS, 1 ml supernatant vs control (0%)): 0.5%
optimaler Dosisbereich ([1]; Table 8, 7,5% FKS, bracketed value = concentration of the single sample): 1 mM
% Steigerung der t-Pa-Synthese Durchschnitt ([1]; Table 8, mean ± SE, n = 6-19, runs of 3 days, added day 0 to 2, 7,5% FKS, 1 ml supernatant vs control (0%)): 31,2 ± 3,2%
% Steigerung der t-Pa-Synthese Maximum ([1]; Table 8, single sample, 7,5% FKS, 1 ml supernatant vs control (0%)): 66,4%
t-PA-Produktion erhöht (Dauer) ([1]; duration of raised production after treatment, independent of application day): 72 h
Maximalwert des Steigerungseffektes erreicht nach ([1]; time to maximal effect (Abb. 15)): 24 h
Hemmung der Zellteilung ([4]; serum-free medium): 10-20%
maximale intrazelluläre t-PA-Konzentration ([6]; 1 mM, after 24 h (Abb. 17C)): 1,1 ± 0,1 µg/l x 10⁶ Zellen
activation at 1000 µM ([6]; 96 h, 1 mM, Elisa, per 1 x 10⁶ cells, day 4 (Abb. 17B), read-out: Steigerungsrate): ~35%
extrazelluläre t-PA-Konzentration gegenüber der Kontrolle gesteigert ([5]; day 5, medium not clearly stated): 10,7%
